Experimental data reported in US12083089B2, “Compositions and methods for stimulating ventilatory and/or respiratory drive” (CASE WESTERN RESERVE UNIVERSITY, priority 2015, dated 2024).
Marks after values point to notes of the source that are not given here.

Experiments:
[1] = system: conscious male adult Sprague-Dawley rats; assay: Plethysmographic ventilatory responses to test compounds in conscious rats; format: in vivo, rat; conditions: 500 μmol/kg, i.v., FIG. 2
[2] = system: freely moving adult male Sprague-Dawley rats; assay: Whole-body plethysmography of ventilatory parameters in morphine-treated rats
Experimental: Permissions, rats, surgical procedures and blinding of protocols. All studies were carried out in accordance with the NIH Guide for the Care and Use of Laboratory Animals (NIH Publication No. […]) revised in 1996. The protocols were approved by the Animal Care and Use Committees of the University of Virginia, Case Western Reserve University and Loma Linda University. In addition, all studies were carried out in compliance with the ARRIVE (Animal Research: Reporting of In Vivo Experiments) guidelines. Adult male Sprague-Dawley rats (Harlan, Madison, WI, USA) were implanted with jugular vein catheters under 2% isoflurane anesthesia and some rats received femoral arterial catheters. The rats were allowed at least four days to recover from surgery before use. All arterial catheters were flushed daily with heparin solution (50 units of heparin in phosphate-buffered saline at 0.1 M, pH 7.4). All catheters were flushed with phosphate-buffered saline (0.1 M, pH 7.4) approximately four hours before commencement of the experiments. All studies were performed in a quiet laboratory with relative humidity of 49±2% and room temperature of 21.4±0.2° C. […] Also, please note that the antinociception and ventilatory studies were done in separate groups of rats so as to not complicate the respiratory measurements. The recording (plethysmography, antinociception) sessions and the arterial blood gas assays were done by a particular investigator who administered the opioid, vehicle or test drug such as d-cystine diME. The syringes containing the vehicle or test drug were made up by another investigator, such that the investigator running the actual experiment was blinded to the treatment protocol. In every case, the data files resulting from a particular study were first collated and analyzed by another investigator in the group.
Ventilatory parameters were recorded in freely moving rats by whole body plethysmography (PLY3223; Data Sciences International, St. Paul, MN). The rats were placed in individual chambers and given 60 min to acclimatize to allow true resting ventilatory parameters to be established. […] The rats received another injection of vehicle or 1-NACme (500 μmol/kg, IV) 15 min later and ventilatory parameters were recorded for a further 60 min.
The provided software (Fine Pointe, BUXCO) constantly corrected digitized values for changes in chamber temperature and humidity. Pressure changes associated with the respiratory waveforms were then converted to volumes (i.e., TV, PIF and PEF) using the algorithm of Epstein and colleagues. Specifically, factoring in chamber temperature and humidity, the cycle analyzers filtered the acquired signals, and BUXCO algorithms (Fine Pointe) generated an array of box flow data that identified a waveform segment as an acceptable breath. From that data vector, the minimum and maximum values were determined. Flows at this point were considered to be “box flow” signals.
The recorded data (1 min bins) and derived parameters, Vt/Ti and Response Area (cumulative percent changes from pre-values) were taken for statistical analyses. The pre-drug 1 min bins excluded occasional marked deviations from resting due to movements or scratching by the rats. These exclusions ensured accurate determinations of baseline parameters. The data are presented as mean±SEM. All data unless other-wise stated (see immediately below) were analyzed by one-way or two-way analysis of variance followed by Student's modified t test with Bonferroni corrections for multiple comparisons between means using the error mean square terms from each ANOVA. A value of P<0.05 denoted the initial level of statistical significance that was modified according to the number of comparisons between means.

freely moving rats [3] = assay: Arterial blood-gas chemistry and A-a gradient in morphine-treated rats; format: in vivo, rat; conditions: for deleterious actions of morphine on ABG chemistry and A-a gradient: bolus 500 μmol/kg i.v. after morphine 10 mg/kg i.v., Example 1; for deleterious effects of morphine on ABG chemistry and A-a gradient after prior infusion: prior infusion 14.3 μmol/kg/min, total 500 μmol/kg i.v. over 35 min, morphine 10 mg/kg i.v.
conscious rats = assay: Morphine-induced analgesia (paw withdrawal latency assay), Example 1; format: in vivo, rat; conditions: pretreatment 500 μmol/kg i.v.; morphine 5 mg/kg i.v.
freely moving rats [4] = assay: Tail-flick latency (TFL) test; format: in vivo, rat
rats = assay: Hemodynamics (preliminary toxicology); format: in vivo, rat; conditions: 500 μmol/kg, i.v.
From the text: FIGS. 11(A-C) illustrate plots showing the effects of test agents (500 μmol/kg, i.v.) on hemodynamic variables. Data are presented mean±SEM (n=8 rats per group).

adult male rats [5] = assay: Hargreaves Hind-paw Latency Test, morphine 1 mg/kg; format: in vivo, rat; conditions: for Hargreaves hind-paw withdrawal latency: FIG. 24 study
adult male rats [6] = assay: Von Frey Test, morphine 1 mg/kg; format: in vivo, rat; conditions: for force needed to initiate hind-paw withdrawal (Von Frey): FIG. 25 study
[7] = two injections of L-NACme 500 μmol/kg IV after morphine 10 mg/kg IV
[8] = 500 μmol/kg IV with morphine sulfate 1.0 mg/kg IV
[9] = 500 μmol/kg IV, tested 20 to 30 min post-injection

Compound: CCOC(=O)[C@H](N)CS [D-CYSee, D-Cysteine ethyl ester]
- total ventilatory responses recorded over the 30 min post-injection period (% baseline), comparison of efficacy [1]: more efficacious that L-CYSee/L-CYSme
- ventilatory depressant effects of morphine incl. tidal volume/inspiratory time (Vt/Ti) ([2]; bolus 500 μmol/kg i.v. (D-CYSee 2×500 μmol/kg) after morphine 10 mg/kg i.v., conscious rats, Example 1): sustained reversal
- deleterious actions of morphine on ABG chemistry and A-a gradient (freely moving rats [3]): sustained reversal
- decay of morphine analgesia (conscious rats): decayed more quickly
- initial level of analgesia (paw withdrawal latency) elicited by morphine (conscious rats): did not affect

Compound: N[C@H](CSSC[C@@H](N)C(=O)O)C(=O)O [D-Cystine, D-cystine]
- Frequency: Drug - entire 75 min, % change ([2]; rat, in vivo): +4.5 ± 3.3%
- Frequency: Drug - last 15 min, % change ([2]; rat, in vivo): +14.3 ± 2.8*^,† %
- Frequency: Drug maximum, % change ([2]; rat, in vivo): −1.2 ± 2.1%
- Minute Ventilation: Drug - entire 75 min, % change ([2]; rat, in vivo): −19 ± 5 %
- Minute Ventilation: Drug - last 15 min, % change ([2]; rat, in vivo): −2 ± 4*^,† %
- Minute Ventilation: Drug maximum, % change ([2]; rat, in vivo): −4.4 ± 2.5%
- Tidal Volume: Drug - entire 75 min, % change ([2]; rat, in vivo): −22 ± 4 %
- Tidal Volume: Drug - last 15 min, % change ([2]; rat, in vivo): −12 ± 2*^,† %
- Tidal Volume: Drug maximum, % change ([2]; rat, in vivo): +3.4 ± 2.2%
- immediate effects on Freq, TV or MV ([2]; rat, in vivo): did not elicit immediate effects
- return of Freq, TV and MV toward pre-morphine levels versus vehicle-treated rats ([2]; rat, in vivo): returned toward pre-morphine levels more quickly
- deleterious actions of morphine on ABG chemistry and A-a gradient (freely moving rats [3]): minor delayed effects
- changes in ABG chemistry (pH, pCO2, pO2 and sO2) (freely moving rats [3]; freely moving rats, morphine 10 mg/kg IV, then drug 500 μmol/kg IV 15 min later, FIG. 18): returned toward pre-injection levels faster
- changes in A-a gradient (freely moving rats [3]; freely moving rats, morphine 10 mg/kg IV, then drug 500 μmol/kg IV 15 min later, FIG. 19): returned toward pre-injection levels
- Tail-Flick latency (freely moving rats [4]; 10 min-post drug (time −10 min), D-cystine 500 μmol/kg IV alone): 3.3 ± 0.4 s
- Tail-Flick latency (freely moving rats [4]; 20 min post-drug (time 0), D-cystine 500 μmol/kg IV alone): 3.2 ± 0.4 s
- antinociceptive effects of morphine (TFL) in drug-pretreated rats (freely moving rats [4]; drug 500 μmol/kg IV 20 min before morphine 10 mg/kg IV): also enhanced
- Tail-Flick latency (freely moving rats [4]; post-morphine - 30 min, D-cystine 500 μmol/kg IV pretreated, morphine 10 mg/kg IV): 12 ± 0.0 s
- Tail-Flick latency (freely moving rats [4]; post-morphine - 60 min, D-cystine 500 μmol/kg IV pretreated, morphine 10 mg/kg IV): 12 ± 0.0 s
- Tail-Flick latency (freely moving rats [4]; post-morphine - 90 min, D-cystine 500 μmol/kg IV pretreated, morphine 10 mg/kg IV): 12 ± 0.0 s
- Tail-Flick latency (sec) (freely moving rats [4]; post-morphine - 120 min, D-cystine 500 μmol/kg IV pretreated, morphine 10 mg/kg IV): 12 ± 0.0*^,† sec
- Tail-Flick latency (sec) (freely moving rats [4]; post-morphine - 180 min, D-cystine 500 μmol/kg IV pretreated, morphine 10 mg/kg IV): 10.7 ± 0.3*^,† sec
- Tail-Flick latency (sec) (freely moving rats [4]; post-morphine - 210 min, D-cystine 500 μmol/kg IV pretreated, morphine 10 mg/kg IV): 7.4 ± 0.3*^,† sec
- Tail-Flick latency (freely moving rats [4]; post-morphine - 240 min, D-cystine 500 μmol/kg IV pretreated, morphine 10 mg/kg IV): 5.0 ± 0.3 s
- Tail-Flick latency (freely moving rats [4]; post-morphine - 360 min, D-cystine 500 μmol/kg IV pretreated, morphine 10 mg/kg IV): 3.5 ± 0.3 s

Compound: N[C@H](CS)C(=O)O [D-cysteine]
- deleterious actions of morphine on ABG chemistry and A-a gradient (freely moving rats [3]): minimal effects

Compound: CCOC(=O)[C@@H](N)CS [L-CYSee, L-Cysteine ethyl ester]
- peak inspiratory flow and respiratory drive (Vt/Ti) during infusion ([2]; prior infusion 14.3 μmol/kg/min, total 500 μmol/kg i.v. over 35 min, conscious rats): dramatically increased
- subsequent effects of a bolus injection of morphine on ventilation ([2]; prior infusion total 500 μmol/kg i.v. over 35 min, morphine 10 mg/kg i.v.): markedly blunted
- effect of a subsequent injection after infusion and morphine ([2]; subsequent injection 250 μmol/kg/min as printed, morphine 10 mg/kg i.v.): prompt beneficial effects
- deleterious effects of morphine on ABG chemistry and A-a gradient after prior infusion (freely moving rats [3]): virtually eliminated
- cardiac output and heart rate (rats): decreases
- hemodynamic responses (FIG. 11) (rats): minimal responses
- mean arterial blood pressure (MAP) (rats): substantial transient decreases
- total peripheral resistance (rats): no changes

Compound: COC(=O)[C@@H](N)CS [L-CYSme, L-cysteine methylester]
- total ventilatory responses recorded over the 30 min post-injection period (% baseline), comparison of efficacy [1]: as efficacious as L-CYSee

Compound: COC(=O)[C@H](CS)NC(C)=O [L-NACme, L-N-acetylcysteine methylester]
- total ventilatory responses recorded over the 30 min post-injection period (% baseline), comparison of efficacy [1]: comparatively minor effects
- effects on morphine-induced changes in Freq, TV and MV ([2]; 2×500 μmol/kg, IV, morphine 10 mg/kg): only minor effects
- Frequency: Drug - entire 75 min, % change [2, 7]: +11 ± 2 %
- Minute Ventilation: Drug - entire 75 min, % change [2, 7]: −19 ± 4 %
- Tidal Volume: Drug - entire 75 min, % change [2, 7]: −22 ± 3 %

Compound: CCOC(=O)[C@@H](N)CO [L-SERee, L-serine ethyl ester]
- total ventilatory responses recorded over the 30 min post-injection period (% baseline), comparison of efficacy [1]: minimally active
- deleterious effects of morphine on ABG chemistry and A-a gradient after prior infusion (freely moving rats [3]): without effect

Compound: COC(=O)[C@@H](N)CSSC[C@H](N)C(=O)OC [L-cystine diME]
- effect on the antinociception actions of morphine (Hargreaves) (adult male rats [5]; [8]): neither thiolester affected
- thermal nociception (Hargreaves Testing) when given alone (adult male rats [5]; [9]): neither d-cystine diME nor L-cystine diME affected
- Hargreaves hind-paw withdrawal latency (adult male rats [5]; L-cystine diME plus morphine): 18.5 ± 1.1 s
- Hargreaves hind-paw withdrawal latency (adult male rats [5]; given alone, L-cystine diME 500 μmol/kg IV, morphine sulfate 1 mg/kg IV): 12.0 ± 0.5 s
- Hargreaves hind-paw withdrawal latency (adult male rats [5]; morphine+L-cystine diME): 17.2 ± 0.9 s
- effect on the antinociception actions of morphine (Von Frey) (adult male rats [6]; [8]): neither thiolester affected
- mechanical allodynia (Von Frey Testing) when given alone (adult male rats [6]; [9]): neither d-cystine diME nor L-cystine diME affected
- force needed to initiate hind-paw withdrawal (Von Frey) (adult male rats [6]; L-Cystine diME+morphine): 87.3 ± 4.2 g
- force needed to initiate hind-paw withdrawal (Von Frey) (adult male rats [6]; given alone, L-cystine diME 500 μmol/kg IV, morphine 1 mg/kg IV): 51.0 ± 7.6 g
- force needed to initiate hind-paw withdrawal (Von Frey) (adult male rats [6]; morphine+L-Cystine diME): 86.9 ± 5.2 g
